Test results taken from PubChem BioAssay AID248 (DTP/NCI, 2004).
Inconclusive results and toxic doses are left out. Cut-off read from the data, not from the text of the source: active = T/C of 150% or more; inactive = T/C below 125%.

System: L1210 leukemia ip in BDF1 mice, survival T/C
Assay: NCI In Vivo Anticancer Drug Screen. Data for tumor model L1210 Leukemia (intraperitoneal) in B6D2F1 (BDF1) mice
Settings: endpoint: mean survival time, higher = longer survival
In short: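 Transplantable tumor model; survival measured in treated vs vehicle control mice. Value = treated/control.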

[1] = dose: 100.0 mg/kg/injection, schedule: Q04DX002 (ip), vehicle: Klucel (hydroxypropylcellulose) (HPC)
[2] = dose: 200.0 mg/kg/injection, schedule: Q04DX002 (ip), vehicle: Klucel (hydroxypropylcellulose) (HPC)
[3] = dose: 400.0 mg/kg/injection, schedule: Q04DX002 (ip), vehicle: Klucel (hydroxypropylcellulose) (HPC)
[4] = dose: 100.0 mg/kg/injection, schedule: Q04DX003 (ip), vehicle: Klucel (hydroxypropylcellulose) (HPC)
[5] = dose: 200.0 mg/kg/injection, schedule: Q04DX003 (ip), vehicle: Klucel (hydroxypropylcellulose) (HPC)
[6] = dose: 400.0 mg/kg/injection, schedule: Q04DX003 (ip), vehicle: Klucel (hydroxypropylcellulose) (HPC)
[7] = dose: 100.0 mg/kg/injection, schedule: Q01DX001 (ip), vehicle: carboxymethylcellulose (CMC)
[8] = dose: 100.0 mg/kg/injection, schedule: Q01DX001 (ip), vehicle: saline
[9] = dose: 200.0 mg/kg/injection, schedule: Q01DX001 (ip), vehicle: saline
[10] = dose: 400.0 mg/kg/injection, schedule: Q01DX001 (ip), vehicle: saline
[11] = dose: 100.0 mg/kg/injection, schedule: Q04DX002 (ip), vehicle: saline with Tween-80
[12] = dose: 200.0 mg/kg/injection, schedule: Q04DX002 (ip), vehicle: saline with Tween-80
[13] = dose: 400.0 mg/kg/injection, schedule: Q04DX002 (ip), vehicle: saline with Tween-80

Measured: T/C

CCOC(=O)Cn1c(=O)n(CC(=O)OCC)c2ccccc21
inactive: [1] 104 % of control | [2] 100 % of control | [3] 110 % of control

O=C(COc1ccc(Cl)c(Cl)c1)Nc1ccc[n+](Cc2ccccc2S(=O)(=O)F)c1
inactive: dose: 100.0 mg/kg/injection, schedule: Q04DX003 (ip), vehicle: saline with Tween-80 96 % of control

CC(C)C(C)/C=C\C(C)C1CCC2C3=CCC4CC(=O)CCC4(C)C3CCC21C (stereo not drawn)
inactive: dose: 50.0 mg/kg/injection, schedule: Q01DX001 (ip), vehicle: Klucel (hydroxypropylcellulose) (HPC) 88 % of control | dose: 100.0 mg/kg/injection, schedule: Q01DX001 (ip), vehicle: Klucel (hydroxypropylcellulose) (HPC) 93 % of control | dose: 200.0 mg/kg/injection, schedule: Q01DX001 (ip), vehicle: Klucel (hydroxypropylcellulose) (HPC) 88 % of control | dose: 400.0 mg/kg/injection, schedule: Q01DX001 (ip), vehicle: Klucel (hydroxypropylcellulose) (HPC) 97 % of control

CCCCCCCCCCCCCCCCNc1cc(C)cc(C)c1
inactive: [4] 96 % of control | [5] 95 % of control | [6] 101 % of control

O=NN(CCCl)C(=O)Nc1ccccc1Cl
inactive: [7] 87 % of control

BrCCC[P+](c1ccccc1)(c1ccccc1)c1ccccc1
inactive: dose: 12.5 mg/kg/injection, schedule: Q01DX009 (ip), vehicle: saline with Tween-80 103 % of control | dose: 25.0 mg/kg/injection, schedule: Q04DX003 (ip), vehicle: saline with Tween-80 97 % of control | dose: 50.0 mg/kg/injection, schedule: Q01DX001 (ip), vehicle: saline 104 % of control | dose: 50.0 mg/kg/injection, schedule: Q04DX003 (ip), vehicle: Klucel (hydroxypropylcellulose) (HPC) 107 % of control | dose: 50.0 mg/kg/injection, schedule: Q04DX003 (ip), vehicle: saline with Tween-80 97 % of control | [8] 116 % of control

O=[N+]([O-])c1cc2c(c3cccnc13)COCO2
inactive: [8] 102 % of control | [9] 100 % of control | [10] 94 % of control

Cc1c(CC=C(c2ccccc2)c2ccccc2)cccc1C[N+](C)(C)C
inactive: dose: 5.0 mg/kg/injection, schedule: Q01DX001 (ip), vehicle: carboxymethylcellulose (CMC) 101 % of control | dose: 10.0 mg/kg/injection, schedule: Q01DX001 (ip), vehicle: carboxymethylcellulose (CMC) 106 % of control | dose: 20.0 mg/kg/injection, schedule: Q01DX001 (ip), vehicle: carboxymethylcellulose (CMC) 98 % of control | dose: 40.0 mg/kg/injection, schedule: Q01DX001 (ip), vehicle: carboxymethylcellulose (CMC) 90 % of control | dose: 80.0 mg/kg/injection, schedule: Q01DX001 (ip), vehicle: carboxymethylcellulose (CMC) 90 % of control | [7] 93 % of control

CCOC(=O)C(Br)(C(=O)OCC)C(c1ccccc1)c1ccccc1
inactive: dose: 100.0 mg/kg/injection, schedule: Q01DX009 (ip), vehicle: saline with Tween-80 98 % of control | dose: 200.0 mg/kg/injection, schedule: Q01DX009 (ip), vehicle: saline with Tween-80 96 % of control | dose: 400.0 mg/kg/injection, schedule: Q01DX009 (ip), vehicle: saline with Tween-80 93 % of control

Cc1cc(Br)c(I)c([N+](=O)[O-])c1
inactive: dose: 37.5 mg/kg/injection, schedule: Q04DX003 (ip), vehicle: saline with Tween-80 104 % of control | dose: 75.0 mg/kg/injection, schedule: Q04DX003 (ip), vehicle: saline with Tween-80 95 % of control | dose: 150.0 mg/kg/injection, schedule: Q04DX003 (ip), vehicle: saline with Tween-80 102 % of control

CCOC(=O)Cc1ccc2[nH]c(C(=O)OCC)cc(=O)c2c1
inactive: [8] 95 % of control | [9] 90 % of control | [10] 95 % of control

CCCN(CCC#N)C(=S)Nc1ccc(C)c(C)c1
inactive: [1] 94 % of control | [2] 97 % of control | [3] 94 % of control

COc1cc(C(=O)O)c(Br)cc1C
inactive: dose: 100.0 mg/kg/injection, schedule: Q01DX009 (ip), vehicle: Klucel (hydroxypropylcellulose) (HPC) 111 % of control | [4] 103 % of control | dose: 200.0 mg/kg/injection, schedule: Q01DX009 (ip), vehicle: Klucel (hydroxypropylcellulose) (HPC) 103 % of control | [5] 93 % of control | dose: 400.0 mg/kg/injection, schedule: Q01DX009 (ip), vehicle: Klucel (hydroxypropylcellulose) (HPC) 98 % of control | [6] 95 % of control

CCOC(=O)c1sc2ccc([N+](=O)[O-])cc2c1C
inactive: [8] 93 % of control | [9] 95 % of control | [10] 104 % of control

C[C@]12CCC(=O)C=C1CC[C@H]1[C@@H]3CCC(=O)[C@@]3(C)CC(=O)[C@@]12S
inactive: dose: 100.0 mg/kg/injection, schedule: Q01DX001 (ip), vehicle: steriod suspending solution 87 % of control | dose: 100.0 mg/kg/injection, schedule: Q04DX003 (ip), vehicle: steriod suspending solution 93 % of control | dose: 200.0 mg/kg/injection, schedule: Q01DX001 (ip), vehicle: steriod suspending solution 93 % of control | dose: 200.0 mg/kg/injection, schedule: Q04DX003 (ip), vehicle: steriod suspending solution 108 % of control | dose: 400.0 mg/kg/injection, schedule: Q01DX001 (ip), vehicle: steriod suspending solution 97 % of control | dose: 400.0 mg/kg/injection, schedule: Q04DX003 (ip), vehicle: steriod suspending solution 95 % of control

CCCCCCCCCCCCCC(=O)OCCC(C)C
inactive: dose: 222.0 mg/kg/injection, schedule: Q01DX Z (ip), vehicle: saline 105 % of control | dose: 333.0 mg/kg/injection, schedule: Q01DX Z (ip), vehicle: saline 95 % of control | dose: 500.0 mg/kg/injection, schedule: Q01DX Z (ip), vehicle: saline 102 % of control

Clc1ccc(/C(=N\OC(c2ccccc2)c2ccccc2)c2ccccc2)cc1
inactive: [9] 86 % of control | [10] 87 % of control

COc1ccc(OC)c(C(=O)CCCCCCCCC(=O)c2cc(OC)ccc2OC)c1
inactive: [4] 104 % of control | [5] 104 % of control | [6] 90 % of control

COC(=O)C1(C)CCC(c2ccc(C)cc2)=C(CC(=O)O)C1 (stereo not drawn)
inactive: dose: 100.0 mg/kg/injection, schedule: Q01DX009 (ip), vehicle: saline 115 % of control | dose: 100.0 mg/kg/injection, schedule: Q04DX003 (ip), vehicle: saline 100 % of control | dose: 200.0 mg/kg/injection, schedule: Q01DX009 (ip), vehicle: saline 97 % of control | dose: 200.0 mg/kg/injection, schedule: Q04DX003 (ip), vehicle: saline 96 % of control | dose: 400.0 mg/kg/injection, schedule: Q01DX009 (ip), vehicle: saline 95 % of control | dose: 400.0 mg/kg/injection, schedule: Q04DX003 (ip), vehicle: saline 115 % of control

CCCC#CCCCN1CCC2(CC1)C(=O)NCN2c1ccccc1
inactive: dose: 20.0 mg/kg/injection, schedule: Q04DX003 (ip), vehicle: Klucel (hydroxypropylcellulose) (HPC) 103 % of control | dose: 40.0 mg/kg/injection, schedule: Q04DX003 (ip), vehicle: Klucel (hydroxypropylcellulose) (HPC) 103 % of control | dose: 80.0 mg/kg/injection, schedule: Q04DX003 (ip), vehicle: Klucel (hydroxypropylcellulose) (HPC) 91 % of control | [4] 93 % of control

O=CC(O)C(Cl)C(Cl)C(O)CCl (stereo not drawn)
inactive: [11] 98 % of control | [12] 98 % of control | [13] 102 % of control

O=C(O)CCCc1ccc2ccccc2n1
inactive: dose: 50.0 mg/kg/injection, schedule: Q01DX001 (ip), vehicle: alkali diluted with saline 101 % of control | dose: 100.0 mg/kg/injection, schedule: Q01DX001 (ip), vehicle: alkali diluted with saline 103 % of control | dose: 200.0 mg/kg/injection, schedule: Q01DX001 (ip), vehicle: alkali diluted with saline 97 % of control | dose: 400.0 mg/kg/injection, schedule: Q01DX001 (ip), vehicle: alkali diluted with saline 103 % of control

O=C(O)C(Oc1ccc(Cl)cc1Cl)C(=O)O
inactive: dose: 100.0 mg/kg/injection, schedule: Q04DX002 (ip), vehicle: other 93 % of control | dose: 200.0 mg/kg/injection, schedule: Q04DX002 (ip), vehicle: other 97 % of control | dose: 400.0 mg/kg/injection, schedule: Q04DX002 (ip), vehicle: other 95 % of control

COc1ccc(CC(N)C(=O)N2CC(n3cnc4c(N(C)C)ncnc43)CC2CO)cc1 (stereo not drawn)
inactive: dose: 25.0 mg/kg/injection, schedule: Q04DX002 (ip), vehicle: saline 98 % of control | dose: 50.0 mg/kg/injection, schedule: Q04DX002 (ip), vehicle: saline 119 % of control | dose: 100.0 mg/kg/injection, schedule: Q04DX002 (ip), vehicle: saline 105 % of control

CC(=O)Nc1ncccn1
inactive: [11] 98 % of control | [12] 98 % of control | [13] 98 % of control
